Source: ChEMBL document CHEMBL1143514 (Bioorg Med Chem Lett, 2005)

Legend:
[1] = target: Cyclin-dependent kinase 2/cyclin E (Homo sapiens, UniProt P24941); assay: Inhibitory concentration against human Cyclin E-cyclin-dependent kinase 2 was observed; type: protein-complex assay
[2] = target: Cyclin-dependent kinase 1/cyclin B (Homo sapiens, UniProt P06493); assay: Inhibitory concentration against human Cyclin B-cyclin-dependent kinase 1 was observed; type: protein-complex assay
[3] = target: Cyclin-dependent kinase 4/cyclin D1 (Homo sapiens, UniProt P11802); assay: Inhibitory concentration against human Cyclin D1-cyclin-dependent kinase 4 was observed; type: protein-complex assay
HCT-116 = assay: Inhibitory concentration against proliferation of human HCT116 cells was observed by MTT assay; type: functional, cell-based

Chain of Cyclin-dependent kinase 4/cyclin D1 (P11802 whole entry): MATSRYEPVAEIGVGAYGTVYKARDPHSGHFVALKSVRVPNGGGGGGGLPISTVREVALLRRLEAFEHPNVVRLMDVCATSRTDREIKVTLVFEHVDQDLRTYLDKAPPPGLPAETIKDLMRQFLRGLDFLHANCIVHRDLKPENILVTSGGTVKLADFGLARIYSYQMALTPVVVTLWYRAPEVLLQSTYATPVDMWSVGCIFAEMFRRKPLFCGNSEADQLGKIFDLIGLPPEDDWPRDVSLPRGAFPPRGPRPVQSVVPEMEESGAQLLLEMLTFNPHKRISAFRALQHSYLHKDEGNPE
Chain of Cyclin-dependent kinase 4/cyclin D1 (P24385 whole entry, further chain): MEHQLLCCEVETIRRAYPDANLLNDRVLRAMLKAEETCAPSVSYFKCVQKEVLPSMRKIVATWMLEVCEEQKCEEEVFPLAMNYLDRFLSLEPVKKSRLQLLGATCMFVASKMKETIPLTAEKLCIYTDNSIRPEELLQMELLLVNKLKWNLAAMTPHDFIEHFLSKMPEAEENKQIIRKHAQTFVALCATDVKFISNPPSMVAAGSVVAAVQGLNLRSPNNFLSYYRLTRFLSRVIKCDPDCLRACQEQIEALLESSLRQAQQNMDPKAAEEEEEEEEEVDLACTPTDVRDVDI

Row | SMILES | IC50 [1] [nM] | IC50 [2] [nM] | IC50 [3] [µM] | IC50 (HCT-116) [µM]
1 | O=C(O)c1ccc(Nc2cn3cc(C(=O)c4c(Cl)cccc4Cl)ccc3n2)cc1 | 740 | 450 | 4.99 | 
2 | CSc1cccc(Nc2cn3cc(C(=O)c4c(Cl)cccc4Cl)ccc3n2)c1 | 17700 | 4800 | 11.9 | 
3 | NC(=O)c1cccc(Nc2cn3cc(C(=O)c4c(Cl)cccc4Cl)ccc3n2)c1 | 2720 | 1920 | 3.95 | 
4 | CN(C)S(=O)(=O)c1cccc(Nc2cn3cc(C(=O)c4c(Cl)cccc4Cl)ccc3n2)c1 | 12100 | 9260 | > 20 | 
5 | CN(C)S(=O)(=O)c1ccc(Nc2cn3cc(C(=O)c4c(Cl)cccc4Cl)ccc3n2)cc1 | 1540 | 970 | 2.16 | 
6 | NS(=O)(=O)c1ccc(Nc2cn3cc(C(=O)c4c(Cl)cccc4Cl)ccc3n2)cc1 |  | 390 | 1.34 | 5.5
7 | O=C(c1ccc2nc(Nc3ccc(Oc4ccccc4)cc3)cn2c1)c1c(Cl)cccc1Cl | > 20000 | > 20000 | > 20 | 
8 | NC(=O)c1ccc(Nc2cn3cc(C(=O)c4c(Cl)cccc4Cl)ccc3n2)cc1 | 1630 | 580 | 1.61 | 
9 | CSc1ccc(Nc2cn3cc(C(=O)c4c(Cl)cccc4Cl)ccc3n2)cc1 | 13800 | 3040 | 7.4 | 
10 | CS(=O)(=O)c1ccc(Nc2cn3cc(C(=O)c4c(Cl)cccc4Cl)ccc3n2)cc1 | 1210 | 520 | 1.22 | 
11 | O=C(NS(=O)(=O)c1ccc(Nc2cn3cc(C(=O)c4c(Cl)cccc4Cl)ccc3n2)cc1)c1ccccc1 | 670 | 250 | 3.84 | 
12 | CS(=O)(=O)c1cccc(Nc2cn3cc(C(=O)c4c(Cl)cccc4Cl)ccc3n2)c1 | 2860 | 1700 | 3.14 | 
13 | O=C(c1ccc2nc(Nc3ccncc3)cn2c1)c1c(Cl)cccc1Cl | > 20000 | > 20000 | > 20 | 
14 | N=C(N)NS(=O)(=O)c1ccc(Nc2cn3cc(C(=O)c4c(Cl)cccc4Cl)ccc3n2)cc1 | 250 | 160 | 1.29 | 
